Earlier results on one molecule are cited in paper PMC4876630 (Theranostics, 2016).

For the data set the following is noted: ref [4]-[8].

`CC[C@@]1(O)C(=O)OCc2c1cc1n(c2=O)Cc2cc3ccccc3nc2-1` [CPT, camptothecin]: the Aqueous solubility (usually the concentration that dissolves in the medium under given conditions) is 2 to 3 µg/mL.
